From patent publication US12358948B2, “Neurotensinergic agonists and methods of using same preventing or treating pain” (priority 2019, dated 2025)
*1 amine or outer side, *2 acyl side, *3 side chain or, on linkers, in order; H or OH if unused. Where a SMILES comes first, the peptide text is derived from it. Bridges are numbered along the chain shown (N, C = ends). [ ]: non-standard residue; d: D form. ξ: configuration not given here. ξαMeNle(6-ylidene) = CC(CCCC=[*:3])(N[*:1])C(=O)[*:2]; Phe(4-I) = N[C@@H](Cc1ccc(I)cc1)C(=O)O; AllylGly = C=CC[C@H](N)C(=O)O; R5 = C=CCCC[C@@](C)(N)C(=O)O; S5 = C=CCCC[C@](C)(N)C(=O)O; Nle = CCCC[C@H](N)C(=O)O; Orn = NCCC[C@H](N)C(=O)O; Dab = NCC[C@H](N)C(=O)O; Nva = CCC[C@H](N)C(=O)O; Dap = NC[C@H](N)C(=O)O

Columns and labels:
hNTS1 receptor = target: T1, hNTS1 receptor (Homo sapiens, UniProt P30989); assay: Competitive radioligand binding assay on the hNTS1 receptor; details: displacement of 125I-[Tyr3]-NT, membranes of CHO-K1 cells expressing hNTS1; read-out: IC50 NTS1
T1 construct: membranes prepared from them
T1 sequence (P30989 whole entry): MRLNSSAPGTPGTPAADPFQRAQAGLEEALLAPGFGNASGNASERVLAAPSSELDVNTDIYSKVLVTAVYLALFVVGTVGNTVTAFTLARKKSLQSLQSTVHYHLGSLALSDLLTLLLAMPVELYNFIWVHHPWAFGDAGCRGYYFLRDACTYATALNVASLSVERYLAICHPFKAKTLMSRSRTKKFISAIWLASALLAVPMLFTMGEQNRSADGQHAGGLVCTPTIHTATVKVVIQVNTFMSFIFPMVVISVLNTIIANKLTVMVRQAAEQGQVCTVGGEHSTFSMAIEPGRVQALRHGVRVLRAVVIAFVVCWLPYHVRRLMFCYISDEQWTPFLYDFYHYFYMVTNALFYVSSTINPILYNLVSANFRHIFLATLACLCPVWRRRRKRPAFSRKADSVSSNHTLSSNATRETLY
Protocol: (§1) CHO-K1 (Chinese Hamster Ovary) cells stably expressing hNTS1 and 1321N1 cells stably expressing hNTS2 (ES-690-C and ES-691-C from PerkinElmer, Montréal, Canada) were cultured respectively in Ham's F12 and in DMEM culture media. Culture media were supplemented with 10% FBS, 100 U/mL penicillin, 100 μg/mL streptomycin, 20 mM HEPES, and 0.4 mg/mL G418 at 37° C. in a humidified chamber at 5% CO2.
(§2) The cells expressing hNTS1 were frozen when they reached 80% confluency. They were scrapped off the dish with 10 mM Tris buffer, 1 mM EDTA, pH 7.5 and centrifuged at 15,000 g for 5 min at 4° C. The pellet was then re-suspended in 1 mL binding buffer. The cells expressing hNTS2 were also frozen when they reached 80% confluency. They were scraped off the dish with PBS, 0.5 mM EDTA, pH 7.5 and sonicated for 5 minutes (pulse 30 s/5 s off, amplitude 40%). They were ultracentrifuged at 100 000 g for 60 minutes at 4° C. The pellet was re-suspended in 1 mL freezing buffer (PBS, glycerol, 0.5 mM EDTA), sonicated for 1 minute (pulse 30 s/5 s off, amplitude 50%) and further diluted in binding buffer. Competitive radioligand binding experiments were performed by incubating 15 μg of cell membranes expressing the hNTS1 receptor with […] of ^125I-[Tyr^3]-NT (2200 Ci/mmol) or 50 μg of cell membranes expressing the hNTS2 receptor with […] of ^125I-[Tyr^3]-NT in binding buffer (50 mM Tris-HCl, pH 7.5, 0.2% BSA) in the presence of increasing concentrations of analogues ranging from 10^−11 to 10^−4 M for 60 min at 25° C. After incubation, the binding reaction mixture was transferred in PEI-coated 96-well filter plates (glass fiber filters GF/B, Millipore, Billerica, MA). Reaction was terminated by filtration, and plates were washed three times with 200 μL ice-cold binding buffer. Glass filters were then counted using a γ-counter (2470 Wizard2, PerkinElmer, Mississauga, Ontario, Canada). Non-specific binding was measured in the presence of 10^−5 M unlabeled NT (8-13) and represented less than 5% of total binding. IC50 values were determined from competition curves as the unlabeled ligand concentration inhibiting 50% of ^125I-[Tyr^3]-NT-specific binding.
(§3) Competitive radioligand binding data were plotted using the nonlinear regression One-site-Fit Log(IC50) and represented the mean±SEM of at least three independent experiments in triplicates.

hNTS2 receptor = target: T2, hNTS2 receptor (Homo sapiens, UniProt O95665); assay: Competitive radioligand binding assay on the hNTS2 receptor; details: for IC50: displacement of 125I-[Tyr3]-NT, membranes of 1321N1 cells expressing hNTS2, read-out: IC50 NTS2 (converted); for Selectivity: ratio IC50 for NTS1 : IC50 for NTS2
T2 construct: membranes prepared from them
T2 sequence (O95665 whole entry): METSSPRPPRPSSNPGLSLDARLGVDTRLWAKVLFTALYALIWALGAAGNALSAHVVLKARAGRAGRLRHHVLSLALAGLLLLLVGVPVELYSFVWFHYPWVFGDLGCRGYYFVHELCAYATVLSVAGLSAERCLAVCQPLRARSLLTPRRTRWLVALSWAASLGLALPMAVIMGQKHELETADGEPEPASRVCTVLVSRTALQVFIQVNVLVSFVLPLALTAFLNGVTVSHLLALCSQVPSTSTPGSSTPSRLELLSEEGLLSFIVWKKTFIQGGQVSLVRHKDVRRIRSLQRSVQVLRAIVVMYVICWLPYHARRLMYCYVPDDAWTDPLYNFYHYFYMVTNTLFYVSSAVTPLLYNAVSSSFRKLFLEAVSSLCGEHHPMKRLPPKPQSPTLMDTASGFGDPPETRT
Protocol: as §1, §2, §3

Row | Compound | IC50 (hNTS1 receptor) [µM] | IC50 (hNTS2 receptor) [µM] | Selectivity (hNTS2 receptor)
1 | CC(C)C[C@H](NC(=O)[C@H](Cc1ccc(O)cc1)NC(=O)[C@@H]1CC=CC[C@H](N)C(=O)N[C@@H](Cc2c[nH]cn2)C(=O)N[C@@H](CCCCN)C(=O)N1)C(=O)O [compound 83, c[G(All)HKG(All)]YL] (H-[AllylGly]HK[AllylGly]YL-OH; staple 1-4) | > 100 | 1.32 | >76
2 | CC(C)C[C@H](NC(=O)[C@H](Cc1ccc(O)cc1)NC(=O)[C@@H]1CC=CC[C@H](N)C(=O)NCC(=O)N[C@@H](CCCCN)C(=O)N1)C(=O)O [compound 87, c[G(All)GKG(All)]YL] (H-[AllylGly]GK[AllylGly]YL-OH; staple 1-4) | > 100 | 0.516 | >194
3 | CC(C)C[C@H](NC(=O)[C@H](Cc1ccc(O)cc1)NC(=O)[C@@H]1CC=CCCC[C@](C)(N)C(=O)N[C@@H](CCCCN)C(=O)N[C@@H](CCCCN)C(=O)N1)C(=O)O [compound 89, c[G(alpha-Me-(4-Pentenyl))KKG(All)]YL] (H-[S5]KK[AllylGly]YL-OH; staple 1-4) | > 100 | 0.0132 | >7553
4 | CC(C)C[C@H](NC(=O)[C@H](Cc1ccc(O)cc1)NC(=O)[C@@H]1CC=CCCC[C@@](C)(N)C(=O)N[C@@H](CCCCN)C(=O)N[C@@H](CCCCN)C(=O)N1)C(=O)O [compound 90, c[G*(alpha-Me-(4-Pentenyl))KKG(All)]YL] (H-[R5]KK[AllylGly]YL-OH; staple 1-4) | > 100 | 0.0769 | >1300
5 | CC(C)C[C@H](NC(=O)[C@H](Cc1ccc(O)cc1)NC(=O)C1(C)CCCC=CCCCC(C)(N)C(=O)N[C@@H](CCCCN)C(=O)N[C@@H](CCCCN)C(=O)N1)C(=O)O (stereo partly drawn) [compound 93, c[G(alpha-Me-(4-Pentenyl))KKG*(alpha-Me(4-Pentenyl))]YL] (H-[ξαMeNle(6-ylidene)]KK[ξαMeNle(6-ylidene)]YL-OH; staple 1-4) | > 100 | 0.0344 | >2907
6 | CC(C)C[C@H](NC(=O)[C@H](Cc1ccc(O)cc1)NC(=O)[C@@H]1CC(=O)NC[C@H](N)C(=O)N[C@@H](CCCCN)C(=O)N[C@@H](CCCCN)C(=O)N1)C(=O)O [compound 94, c[DapKKD]YL] (H-[Dap]KKDYL-OH; lactam 1-4) | > 100 | 22.8 | >4.4
7 | CC(C)C[C@H](NC(=O)[C@H](Cc1ccc(O)cc1)NC(=O)[C@@H]1CC(=O)NCC[C@H](N)C(=O)N[C@@H](CCCCN)C(=O)N[C@@H](CCCCN)C(=O)N1)C(=O)O [compound 95, c[DabKKD]YL] (H-[Dab]KKDYL-OH; lactam 1-4) | > 100 | 8.81 | >11.4
8 | CC(C)C[C@H](NC(=O)[C@H](Cc1ccc(O)cc1)NC(=O)[C@@H]1CC(=O)NCCC[C@H](N)C(=O)N[C@@H](CCCCN)C(=O)N[C@@H](CCCCN)C(=O)N1)C(=O)O [compound 96, c[OrnKKD]YL] (H-[Orn]KKDYL-OH; lactam 1-4) | > 100 | 1.93 | >51.8
9 | CC(C)C[C@H](NC(=O)[C@H](Cc1ccc(O)cc1)NC(=O)[C@@H]1CC(=O)NCCCC[C@H](N)C(=O)N[C@@H](CCCCN)C(=O)N[C@@H](CCCCN)C(=O)N1)C(=O)O [compound 97, c[KKKD]YL] (H-KKKDYL-OH; lactam 1-4) | > 100 | 1.02 | >98.4
10 | CC(C)C[C@H](NC(=O)[C@H](Cc1ccc(O)cc1)NC(=O)[C@@H]1CCC(=O)NC[C@H](N)C(=O)N[C@@H](CCCCN)C(=O)N[C@@H](CCCCN)C(=O)N1)C(=O)O [compound 98, c[DapKKE]YL] (H-[Dap]KKEYL-OH; lactam 1-4) | > 100 | 8.18 | >12.2
11 | CC(C)C[C@H](NC(=O)[C@H](Cc1ccc(O)cc1)NC(=O)[C@@H]1CCC(=O)NCC[C@H](N)C(=O)N[C@@H](CCCCN)C(=O)N[C@@H](CCCCN)C(=O)N1)C(=O)O [compound 99, c[DabKKE]YL] (H-[Dab]KKEYL-OH; lactam 1-4) | > 100 | 11 | >9
12 | CC(C)C[C@H](NC(=O)[C@H](Cc1ccc(O)cc1)NC(=O)[C@@H]1CCC(=O)NCCC[C@H](N)C(=O)N[C@@H](CCCCN)C(=O)N[C@@H](CCCCN)C(=O)N1)C(=O)O [compound 100, c[OrnKKE]YL] (H-[Orn]KKEYL-OH; lactam 1-4) | > 100 | 4.5 | >22
13 | CC(C)C[C@H](NC(=O)[C@H](Cc1ccc(O)cc1)NC(=O)[C@@H]1CCC(=O)NCCCC[C@H](N)C(=O)N[C@@H](CCCCN)C(=O)N[C@@H](CCCCN)C(=O)N1)C(=O)O [compound 101, c[KKKE]YL] (H-KKKEYL-OH; lactam 1-4) | > 100 | 0.889 | >111

Second part, the compound after the results:

Row | IC50 (hNTS1 receptor) [µM] | IC50 (hNTS2 receptor) [µM] | Selectivity (hNTS2 receptor) | Compound
14 | > 100 | 0.0155 | >6452 | CC(C)C[C@H](NC(=O)[C@H](Cc1ccc(I)cc1)NC(=O)[C@@H]1CC=CC[C@H](N)C(=O)N[C@@H](CCCCN)C(=O)N[C@@H](CCCCN)C(=O)N1)C(=O)O [compound 78, c[G(All)KKG(All)]F(4-iodo)L] (H-[AllylGly]KK[AllylGly][Phe(4-I)]L-OH; staple 1-4)
15 | > 100 | 0.0775 | >1291 | CC(C)C[C@H](NC(=O)[C@H](Cc1ccc(O)cc1)NC(=O)[C@@H]1CC=CC[C@H](N)C(=O)N[C@@H](CCCN)C(=O)N[C@@H](CCCCN)C(=O)N1)C(=O)O [compound 79, c[G(All)OrnKG(All)]YL] (H-[AllylGly][Orn]K[AllylGly]YL-OH; staple 1-4)
16 | > 100 | 0.137 | >729 | CC(C)C[C@H](NC(=O)[C@H](Cc1ccc(O)cc1)NC(=O)[C@@H]1CC=CC[C@H](N)C(=O)N[C@@H](CCN)C(=O)N[C@@H](CCCCN)C(=O)N1)C(=O)O [compound 80, c[G(All)DabKG(All)]YL] (H-[AllylGly][Dab]K[AllylGly]YL-OH; staple 1-4)
17 | > 100 | 0.18 | >557.2 | CC(C)C[C@H](NC(=O)[C@H](Cc1ccc(O)cc1)NC(=O)[C@@H]1CC=CC[C@H](N)C(=O)N[C@@H](CN)C(=O)N[C@@H](CCCCN)C(=O)N1)C(=O)O [compound 81, c[G(All)DapKG(All)]YL] (H-[AllylGly][Dap]K[AllylGly]YL-OH; staple 1-4)
18 | > 100 | 0.621 | >161 | CC(C)C[C@H](NC(=O)[C@H](Cc1ccc(O)cc1)NC(=O)[C@@H]1CC=CC[C@H](N)C(=O)N[C@H](CCCCN)C(=O)N[C@@H](CCCCN)C(=O)N1)C(=O)O [compound 82, c[G(All)K*KG(All)]YL] (H-[AllylGly][dK]K[AllylGly]YL-OH; staple 1-4)
19 | > 100 | 0.646 | >154.9 | CC(C)C[C@H](NC(=O)[C@H](Cc1ccc(O)cc1)NC(=O)[C@@H]1CC=CC[C@H](N)C(=O)N[C@H](Cc2c[nH]cn2)C(=O)N[C@@H](CCCCN)C(=O)N1)C(=O)O [compound 84, c[G(All)H*KG(All)]YL] (H-[AllylGly][dH]K[AllylGly]YL-OH; staple 1-4)
20 | > 100 | 1.07 | >93 | CCCC[C@@H]1NC(=O)[C@@H](N)CC=CC[C@@H](C(=O)N[C@@H](Cc2ccc(O)cc2)C(=O)N[C@@H](CC(C)C)C(=O)O)NC(=O)[C@H](CCCCN)NC1=O [compound 85, c[G(All)NleKG(All)]YL] (H-[AllylGly][Nle]K[AllylGly]YL-OH; staple 1-4)
21 | > 100 | 0.743 | >135 | CCC[C@@H]1NC(=O)[C@@H](N)CC=CC[C@@H](C(=O)N[C@@H](Cc2ccc(O)cc2)C(=O)N[C@@H](CC(C)C)C(=O)O)NC(=O)[C@H](CCCCN)NC1=O [compound 86, c[G(All)NvaKG(All)]YL] (H-[AllylGly][Nva]K[AllylGly]YL-OH; staple 1-4)
22 | > 100 | 10.6 | >9.4 | CC(C)C[C@H](NC(=O)[C@H](Cc1ccc(O)cc1)NC(=O)[C@@H]1CC=CC[C@H](N)C(=O)N[C@@H](CCC(=O)O)C(=O)N[C@@H](CCCCN)C(=O)N1)C(=O)O [compound 88, c[G(All)EKG(All)]YL] (H-[AllylGly]EK[AllylGly]YL-OH; staple 1-4)
